In patent publication US9174964B2, “AMPK-activating piperidinyloxy-substituted 2,3-dihydro-1H-indene-1-amine compounds and pharmaceutical compositions including the same” (Rigel Pharmaceuticals, Inc., priority 2007, dated 2015):

What follows are compounds tested against AMPK (assay: AMPK activation, enzyme-linked immunosorbent assay). Conditions: Table 2, AMPK activation, ELISA.
Type: biochemical

**Q.** With `O=C(O)c1ccc(CN2CCC(NC(=O)c3ccc(OC4CCN(c5ccc(C(F)(F)F)cc5)CC4)nc3)CC2)cc1` [Compound 46, 4-((4-(6-(1-(4-(trifluoromethyl)phenyl)piperidin-4-yloxy)nicotinamido)piperidin-1-yl)methyl)benzoic acid] as the compound, how does the EC50 read?
**A.** 1000 to 5000 nM

**Q.** How did the EC50 turn out when `O=C(NC1CN(Cc2ccncc2)C1)c1ccc(OC2CCN(c3ccc(C(F)(F)F)cc3)CC2)cn1` [Compound 42, N-(1-(pyridin-4-ylmethyl)azetidin-3-yl)-5-(1-(4-(trifluoromethyl)phenyl)piperidin-4-yloxy)picolinamide] was run?
**A.** 1000 to 5000 nM

**Q.** For `O=C(N[C@H]1CCN(Cc2ccncc2)C1)c1ccc(OC2CCN(c3ccc(C(F)(F)F)cc3)CC2)cn1` [Compound 30, (S)-N-(1-(pyridin-4-ylmethyl)pyrrolidin-3-yl)-5-(1-(4-(trifluoromethyl)phenyl)piperidin-4-yloxy)picolinamide], which EC50 is on record?
**A.** < 100 nM

**Q.** `CC(C)(C)OC(=O)NCCCNC(=O)c1ccc(OC2CCN(c3ccc(C(F)(F)F)cc3)CC2)cn1` [Compound 49, tert-butyl 3-(5-(1-(4-(trifluoromethyl)phenyl)piperidin-4-yloxy)picolinamido) propylcarbamate] was tested. Which EC50 did it give?
**A.** < 100 nM

**Q.** How did the EC50 turn out when `CC(C)(C)OC(=O)N1CCC(NC(=O)c2cc(OC3CCN(c4ccc(C(F)(F)F)cc4)CC3)ccn2)CC1` [Compound 12, tert-butyl 4-(4-(1-(4-(trifluoromethyl)phenyl)piperidin-4-yloxy)picolinamido) piperidine-1-carboxylate] was run?
**A.** 500 to 1000 nM

**Q.** For `O=C(NC1CCN(Cc2ccc(F)cc2)CC1)c1cncc(OC2CCN(c3ccc(C(F)(F)F)cc3)CC2)c1` [Compound 16, N-(1-(4-fluorobenzyl)piperidin-4-yl)-5-(1-(4-(trifluoromethyl)phenyl)piperidin-4-yloxy)nicotinamide], which EC50 is on record?
**A.** < 100 nM

**Q.** With `O=C(NC1CCN(Cc2ccncc2)CC1)c1ccc(OC2CCN(c3ccc(C(F)(F)F)cc3)CC2)nc1` [Compound 10, N-(1-(pyridin-4-ylmethyl)piperidin-4-yl)-6-(1-(4-(trifluoromethyl)phenyl)piperidin-4-yloxy)nicotinamide] as the compound, how does the EC50 read?
**A.** < 100 nM

Same assay, conditions: Table 3, AMPK activation, ELISA

**Q.** For `O=S(=O)(NC1CCNCC1)c1ccc(OC2CCN(c3ccc(C(F)(F)F)cc3)CC2)nc1` [Compound 55, N-(piperidin-4-yl)-6-(1-(4-(trifluoromethyl)phenyl)piperidin-4-yloxy)pyridine-3-sulfonamide], which EC50 is on record?
**A.** 1000 to 5000 nM

**Q.** For `O=S(=O)(NC1CCN(Cc2ccc(C(F)(F)F)cc2)CC1)c1ccc(OC2CCN(c3ccc(C(F)(F)F)cc3)CC2)nc1` [Compound 58, N-(1-(4-(trifluoromethyl)benzyl)piperidin-4-yl)-6-(1-(4-(trifluoromethyl)phenyl)piperidin-4-yloxy)pyridine-3-sulfonamide], which EC50 is on record?
**A.** < 100 nM

Same assay, conditions: Table 4, AMPK activation, ELISA

**Q.** `O=C(NC1CCN(Cc2ccc(C(F)(F)F)cc2)CC1)c1cc2cc(OC3CCN(c4ccc(C(F)(F)F)cc4)CC3)ccc2o1` [Compound 100, N-(1-(4-(trifluoromethyl)benzyl)piperidin-4-yl)-5-(1-(4-(trifluoromethyl)phenyl)piperidin-4-yloxy)benzofuran-2-carboxamide] was tested. Which EC50 did it give?
**A.** < 100 nM

**Q.** For `O=C(NC1CCN(S(=O)(=O)c2cccnc2)CC1)c1cc2ccc(OC3CCN(c4ccc(C(F)(F)F)cc4)CC3)cc2o1` [Compound 106, N-(1-(pyridin-3-ylsulfonyl)piperidin-4-yl)-6-(1-(4-(trifluoromethyl)phenyl)piperidin-4-yloxy)benzofuran-2-carboxamide], which EC50 is on record?
**A.** 100 to 500 nM

**Q.** `CN(C(=O)c1cc2cc(OC3CCN(c4ccc(C(F)(F)F)cc4)CC3)ccc2o1)C1CCN(C(=O)c2ccncc2)CC1` [Compound 118, N-(1-isonicotinoylpiperidin-4-yl)-N-methyl-5-(1-(4-(trifluoromethyl)phenyl)piperidin-4-yloxy)benzofuran-2-carboxamide] was tested. Which EC50 did it give?
**A.** 100 to 500 nM

**Q.** For `O=C(N[C@@H]1CCNC1)c1cc2cc(OC3CCN(c4ccc(C(F)(F)F)cc4)CC3)ccc2o1` [Compound 121, (R)-N-(pyrrolidin-3-yl)-5-(1-(4-(trifluoromethyl)phenyl)piperidin-4-yloxy)benzofuran-2-carboxamide], which EC50 is on record?
**A.** > 50000 nM

**Q.** For `O=C(NC1CCN(Cc2ccccn2)CC1)c1cc2ccc(OC3CCN(c4ccc(OC(F)(F)F)cc4)CC3)cc2o1` [Compound 92, N-(1-(pyridin-2-ylmethyl)piperidin-4-yl)-6-(1-(4-(trifluoromethoxy)phenyl)piperidin-4-yloxy)benzofuran-2-carboxamide], which EC50 is on record?
**A.** 500 to 1000 nM

**Q.** Which EC50 does the source give for `NC(=O)c1ccc(CN2CCC(Oc3ccc4oc(C(=O)NC5CCN(Cc6ccncc6)CC5)cc4c3)CC2)cc1` [Compound 131, 5-(1-(4-carbamoylbenzyl)piperidin-4-yloxy)-N-(1-(pyridin-4-ylmethyl)piperidin-4-yl)benzofuran-2-carboxamide] here?
**A.** 1000 to 10000 nM

**Q.** `CN(C(=O)c1cc2cc(OC3CCN(c4ccc(C(F)(F)F)cc4)CC3)ccc2o1)C1CCNCC1` [Compound 103, N-methyl-N-(piperidin-4-yl)-5-(1-(4-(trifluoromethyl)phenyl)piperidin-4-yloxy)benzofuran-2-carboxamide] was tested. Which EC50 did it give?
**A.** 1000 to 10000 nM

**Q.** `O=C(N[C@@H]1CCN(S(=O)(=O)c2cccnc2)C1)c1cc2cc(OC3CCN(c4ccc(C(F)(F)F)cc4)CC3)ccc2o1` [Compound 126, (R)-N-(1-(pyridin-3-ylsulfonyl)pyrrolidin-3-yl)-5-(1-(4-(trifluoromethyl)phenyl)piperidin-4-yloxy)benzofuran-2-carboxamide] was tested. Which EC50 did it give?
**A.** 1000 to 10000 nM

**Q.** How did the EC50 turn out when `O=C(NC1CCN(Cc2ccncc2)CC1)c1cc2cc(OC3CCN(Cc4ccc(Cl)cc4)CC3)ccc2o1` [Compound 77, 5-(1-(4-chlorobenzyl)piperidin-4-yloxy)-N-(1-(pyridin-4-ylmethyl)piperidin-4-yl)benzofuran-2-carboxamide] was run?
**A.** 100 to 500 nM

**Q.** How did the EC50 turn out when `O=C(N[C@H]1CCN(Cc2cccnc2)C1)c1cc2cc(OC3CCN(Cc4ccc(Cl)cc4)CC3)ccc2o1` [Compound 130, (S)-5-(1-(4-chlorobenzyl)piperidin-4-yloxy)-N-(1-(pyridin-3-ylmethyl)pyrrolidin-3-yl)benzofuran-2-carboxamide] was run?
**A.** 1000 to 10000 nM

**Q.** With `CN(C(=O)c1cc2cc(OC3CCN(c4ccc(C(F)(F)F)cc4)CC3)ccc2o1)C1CCN(Cc2ccc(C#N)cc2)CC1` [Compound 107, N-(1-(4-cyanobenzyl)piperidin-4-yl)-N-methyl-5-(1-(4-(trifluoromethyl)phenyl)piperidin-4-yloxy)benzofuran-2-carboxamide] as the compound, how does the EC50 read?
**A.** < 100 nM

**Q.** `CN(C(=O)c1cc2cc(OC3CCN(c4ccc(C(F)(F)F)cc4)CC3)ccc2o1)C1CCN(Cc2ccncc2)CC1` [Compound 104, N-methyl-N-(1-(pyridin-4-ylmethyl)piperidin-4-yl)-5-(1-(4-(trifluoromethyl)phenyl)piperidin-4-yloxy)benzofuran-2-carboxamide] was tested. Which EC50 did it give?
**A.** 100 to 500 nM

**Q.** With `CN(C(=O)c1cc2cc(OC3CCN(c4ccc(C(F)(F)F)cc4)CC3)ccc2o1)C1CCN(Cc2ccccn2)CC1` [Compound 117, N-methyl-N-(1-(pyridin-2-ylmethyl)piperidin-4-yl)-5-(1-(4-(trifluoromethyl)phenyl)piperidin-4-yloxy)benzofuran-2-carboxamide] as the compound, how does the EC50 read?
**A.** < 100 nM

**Q.** Which EC50 does the source give for `CC(C)(C)OC(=O)N1CCC(NC(=O)c2cc3ccc(OC4CCN(c5ccc(OC(F)(F)F)cc5)CC4)cc3o2)CC1` [Compound 81, tert-butyl 4-(6-(1-(4-(trifluoromethoxy)phenyl)piperidin-4-yloxy)benzofuran-2-carboxamido)piperidine-1-carboxylate] here?
**A.** 100 to 500 nM

**Q.** Which EC50 does the source give for `CC(C)(C)OC(=O)N1CC[C@@H](NC(=O)c2cc3cc(OC4CCN(c5ccc(C(F)(F)F)cc5)CC4)ccc3o2)C1` [Compound 120, (R)-tert-butyl 3-(5-(1-(4-(trifluoromethyl)phenyl)piperidin-4-yloxy)benzofuran-2-carboxamido)pyrrolidine-1-carboxylate] here?
**A.** 1000 to 10000 nM

**Q.** For `CN(C(=O)c1cc2cc(OC3CCN(c4ccc(C(F)(F)F)cc4)CC3)ccc2o1)C1CCN(C(=O)OC(C)(C)C)CC1` [Compound 102, tert-butyl 4-(N-methyl-5-(1-(4-(trifluoromethyl)phenyl)piperidin-4-yloxy)benzofuran-2-carboxamido)piperidine-1-carboxylate], which EC50 is on record?
**A.** 1000 to 10000 nM

Same assay, conditions: Table 5, AMPK activation, ELISA

**Q.** For `O=C(NC1CCNCC1)c1sc2cc(OC3CCN(c4ccc(C(F)(F)F)cc4)CC3)ccc2c1Cl` [Compound 148, 3-chloro-N-(piperidin-4-yl)-6-(1-(4-(trifluoromethyl)phenyl)piperidin-4-yloxy)benzo[b]thiophene-2-carboxamide], which EC50 is on record?
**A.** > 50000 nM

Same assay, conditions: Table 6, AMPK activation, ELISA

**Q.** Which EC50 does the source give for `FC(F)(F)c1ccc(N2CCC(Oc3ccc4c(c3)CCC4NC3CCNCC3)CC2)cc1` (stereo not drawn) [Compound 157, N-(5-(1-(4-(trifluoromethyl)phenyl)piperidin-4-yloxy)-2,3-dihydro-1H-inden-1-yl)piperidin-4-amine] here?
**A.** > 100000 nM
